# Experimental data: patent publication US20240156767A1, “SCREENING METHOD FOR GLP-1 SECRETION REGULATION AGENT, GLP-1 SECRETION REGULATION AGENT, COMPOSITION FOR PREVENTING OR AMELIORATING DIABETES, OBESITY, POSTPRANDIAL HYPERGLYCEMIA, NEURODEGENERATIVE DISEASE, HYPOGLYCEMIA, ADIPOSITY, OR NESIDIOBLASTOSIS, METHOD FOR PROMOTING SECRETION OF GLP-1 IN …” (The Nisshin OilliO Group, Ltd., priority 2021, published 2024)
# Test system: C57BL/6 male mice
# Test: Glucose tolerance test in mice with triacylglycerols: plasma GLP-1 concentration (ELISA)
# Type: in vivo
# Conditions: 300 μl sample oral per mouse; glucose 2.5 g/kg 60 minutes after sample; blood 30 minutes after glucose; mean±standard error
# Experimental: A glucose tolerance test was carried out by the following method to examine effects of administration of triacylglycerol to mice on the plasma GLP-1 secretion during glucose tolerance.
# To the PBS solution (10 ml) obtained in the same manner as in the (1-1) above, 50 mg of carboxymethyl cellulose (trade name “Carboxymethyl cellulose sodium”, manufactured by FUJIFILM Wako Pure Chemical Industries, Ltd.) was added and mixed to obtain a carrier solution. To the obtained carrier solution, 2 g of triacylglycerol (trade name “Tridecanoin <Tricaprin>”, manufactured by New Check Prep Co., Ltd.) in which the constituent fatty acids were all capric acid was added and mixed while heating to obtain TriC10 sample.
# A carrier solution was obtained in the same manner as in the (1-2) above. […]
# Plasma was prepared from the obtained blood by a conventional method, and the plasma GLP-1 concentration (pM) was measured. Note here that the plasma GLP-1 concentration was measured by ELISA using a commercially available kit (trade name “Glucagon Like Peptide-1 (Active) ELISA”, manufactured by Sigma-Aldrich). […]
smiles,measurement,value
"CCCCCCCCCC(=O)OCC(COC(=O)CCCCCCCCC)OC(=O)CCCCCCCCC [TriC10, Tridecanoin <Tricaprin>]",GLP-1 CONCENTRATION (plasma),2.803 ± 0.952 pM
